The source of these data is patent publication US11090304B2 (Amgen Inc., priority 2018, dated 2021).

Assay [1] addresses GDP-bound KRAS protein (aa 1-169), containing both G12C and C118A amino acid substitutions (Homo sapiens, UniProt P01116, C118A/G12C). Briefly: Coupled nucleotide exchange assay (SOS-mediated, AlphaScreen). The class given is biochemical. The note with it: 5 min compound pre-incubation. In general terms: In Alpha technology, singlet oxygen from a donor bead excites a nearby acceptor bead.

Assay [2] concerns Phosphorylation of ERK1/2 in MIA PaCa-2 cells. The experiment in a line: Phospho-ERK1/2 MSD assay in MIA PaCa-2 cells. The class given is cell-based. The note with it: Homo sapiens, MIA PaCa-2, 2 h, read-out: p-ERK IC50 (2 h; MIA PaCa-2), 2 h compound treatment. Summed up:
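MIA PaCa-2 or A549 cells were treated with a compound dose-response titration for 2 or 4 h at 37 °C, then stimulated with 10 ng/mL EGF for 10 min. Phospho-ERK1/2 in RIPA lysates was measured by MSD whole-cell lysate immunoassay, and IC50 came from a 4-parameter logistic fit.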

GDP-bound KRAS protein (aa 1-169), containing both G12C and C118A amino acid substitutions, sequence (P01116 1-169 isoform P01116-2 G12C/C118A): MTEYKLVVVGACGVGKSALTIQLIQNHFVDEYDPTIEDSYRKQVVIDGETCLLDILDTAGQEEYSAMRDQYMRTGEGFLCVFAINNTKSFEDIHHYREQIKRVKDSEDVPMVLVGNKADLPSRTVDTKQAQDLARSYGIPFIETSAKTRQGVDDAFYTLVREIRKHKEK

For `C=CC(=O)N1CCN(c2nc(=O)n(-c3ncsc3C(C)C)c3nc(-c4c(O)cccc4F)c(Cl)cc23)[C@@H](C)C1` [Example 55-17, 6-chloro-7-(2-fluoro-6-hydroxyphenyl)-4-((2S)-2-methyl-4-(2-propenoyl)-1-piperazinyl)-1-(5-(2-propanyl)-1,3-thiazol-4-yl)pyrido[2,3-d]pyrimidin-2(1H)-one], the “Coupled exchange IC50 (5 min)” value in assay [1] was 0.18 | nda μM. In addition, in assay [2], the 50% inhibitory concentration (IC50) (usually the concentration needed to halve the response being measured) stood at 123 nM.

Regarding `C=CC(=O)N1CCN(c2nc(=O)n(-c3scnc3C(C)C)c3nc(-c4ccccc4F)c(Cl)cc23)[C@@H](C)C1` [Example 55-18, 6-chloro-7-(2-fluorophenyl)-4-((2S)-2-methyl-4-(2-propenoyl)-1-piperazinyl)-1-(4-(2-propanyl)-1,3-thiazol-5-yl)pyrido[2,3-d]pyrimidin-2(1H)-one], the “Coupled exchange IC50 (5 min)” value in assay [1] is given as 0.067 | nda μM. For the same compound, the IC50 in assay [2] was determined as 83 nM.

Consider `C=CC(=O)N1CCN(c2nc(=O)n(-c3ncsc3C(C)C)c3nc(-c4ccccc4F)c(Cl)cc23)[C@@H](C)C1` [Example 55-19, 6-chloro-7-(2-fluorophenyl)-4-((2S)-2-methyl-4-(2-propenoyl)-1-piperazinyl)-1-(5-(2-propanyl)-1,3-thiazol-4-yl)pyrido[2,3-d]pyrimidin-2(1H)-one], for which the “Coupled exchange IC50 (5 min)” value in assay [1] is given as 0.22 | nda μM. Besides, the IC50 in assay [2] is 191 nM.

For `C=CC(=O)N1CCN(c2nc(=O)n(-c3cn(Cc4ccccc4)nc3C3CC3)c3nc(-c4c(O)cccc4F)c(Cl)cc23)[C@@H](C)C1` [Example 55-20, 1-(1-benzyl-3-cyclopropyl-1H-pyrazol-4-yl)-6-chloro-7-(2-fluoro-6-hydroxyphenyl)-4-((2S)-2-methyl-4-(2-propenoyl)-1-piperazinyl)pyrido[2,3-d]pyrimidin-2(1H)-one], the “Coupled exchange IC50 (5 min)” value in assay [1] was 0.695 | nda μM. The half-maximal inhibitory concentration (IC50) in assay [2] is 2670 nM.

In the case of `C=CC(=O)N1CCN(c2nc(=O)n(-c3c[nH]nc3C3CC3)c3nc(-c4c(O)cccc4F)c(Cl)cc23)[C@@H](C)C1` [Example 55-21, 6-chloro-1-(3-cyclopropyl-1H-pyrazol-4-yl)-7-(2-fluoro-6-hydroxyphenyl)-4-((2S)-2-methyl-4-(2-propenoyl)-1-piperazinyl)pyrido[2,3-d]pyrimidin-2(1H)-one], the “Coupled exchange IC50 (5 min)” value in assay [1] is on record as 0.444 | nda μM. In assay [2], the IC50 is at least 10000 nM.

Turning to `C=CC(=O)N1CCN(c2nc(=O)n(-c3c(CC)cncc3CC)c3nc(-c4ccccc4F)c(Cl)cc23)[C@@H](C)C1` [Example 55-22, 6-chloro-1-(3,5-diethyl-4-pyridinyl)-7-(2-fluorophenyl)-4-((2S)-2-methyl-4-(2-propenoyl)-1-piperazinyl)pyrido[2,3-d]pyrimidin-2(1H)-one], the “Coupled exchange IC50 (5 min)” value in assay [1] is recorded as 0.653 | nda μM. Also, the IC50 in assay [2] came out at 303 nM.

As for `C=CC(=O)N1CCN(c2nc(=O)n(-c3nccnc3C(C)(C)C)c3nc(-c4c(O)cccc4F)c(Cl)cc23)[C@@H](C)C1` [Example 55-23], in assay [1], the “Coupled exchange IC50 (5 min)” value is listed as 0.208 | nda μM. The IC50 in assay [2] came to 260 nM.

For the compound `C=CC(=O)N1CCN(c2nc(=O)n(-c3ncccc3C(=C)C)c3nc(-c4c(O)cccc4F)c(Cl)cc23)[C@@H](C)C1` [Example 55-24, 6-chloro-7-(2-fluoro-6-hydroxyphenyl)-4-((2S)-2-methyl-4-(2-propenoyl)-1-piperazinyl)-1-(3-(1-propen-2-yl)-2-pyridinyl)pyrido[2,3-d]pyrimidin-2(1H)-one], the “Coupled exchange IC50 (5 min)” value in assay [1] is 0.113 | nda μM. The IC50 in assay [2] worked out at 74 nM.

Turning to `C=CC(=O)N1CCN(c2nc(=O)n(-c3c(O)cccc3C(C)C)c3nc(-c4ccccc4F)c(Cl)cc23)[C@@H](C)C1` [Example 55-26, 6-chloro-7-(2-fluorophenyl)-1-(2-hydroxy-6-(2-propanyl)phenyl)-4-((2S)-2-methyl-4-(2-propenoyl)-1-piperazinyl)pyrido[2,3-d]pyrimidin-2(1H)-one], in assay [1], the “Coupled exchange IC50 (5 min)” value is 0.091 | nda μM. Also, the IC50 in assay [2] is 215 nM.

Consider `C=CC(=O)N1CCN(c2nc(=O)n(-c3c(CC)ncnc3CC)c3nc(-c4c(O)cccc4F)c(Cl)cc23)[C@@H](C)C1` [Example 55-31, 6-chloro-1-(4,6-diethyl-5-pyrimidinyl)-7-(2-fluoro-6-hydroxyphenyl)-4-((2S)-2-methyl-4-(2-propenoyl)-1-piperazinyl)pyrido[2,3-d]pyrimidin-2(1H)-one], for which the “Coupled exchange IC50 (5 min)” value in assay [1] was 0.098 | nda μM. Further, in assay [2], the IC50 was determined as 79 nM.

Take `C=CC(=O)N1CCN(c2nc(=O)n(-c3c(CC)ncnc3CC)c3nc(-c4ccc(F)cc4F)c(Cl)cc23)[C@@H](C)C1` [Example 55-35, 6-chloro-1-(4,6-diethyl-5-pyrimidinyl)-7-(2,4-difluorophenyl)-4-((2S)-2-methyl-4-(2-propenoyl)-1-piperazinyl)pyrido[2,3-d]pyrimidin-2(1H)-one]: the “Coupled exchange IC50 (5 min)” value in assay [1] is given as 0.225 | nda μM. Moreover, the IC50 in assay [2] stood at 252 nM.

Regarding `C=CC(=O)N1CCN(c2nc(=O)n(-c3c(C(C)C)nc(OC)nc3C(C)C)c3nc(-c4ccccc4F)c(Cl)cc23)[C@@H](C)C1` [Example 55-37, 6-chloro-7-(2-fluorophenyl)-1-(2-methoxy-4,6-di(2-propanyl)-5-pyrimidinyl)-4-((2S)-2-methyl-4-(2-propenoyl)-1-piperazinyl)pyrido[2,3-d]pyrimidin-2(1H)-one], the “Coupled exchange IC50 (5 min)” value in assay [1] is listed as 0.03 | nda μM. Besides, the IC50 in assay [2] was determined as 57 nM.

As for `C=CC(=O)N1CCN(c2nc(=O)n(-c3c(C)ncnc3C(C)C)c3nc(-c4cc(F)ccc4F)c(Cl)cc23)[C@@H](C)C1` [Example 55-39, 6-chloro-7-(2,5-difluorophenyl)-1-(4-methyl-6-(2-propanyl)-5-pyrimidinyl)-4-((2S)-2-methyl-4-(2-propenoyl)-1-piperazinyl)pyrido[2,3-d]pyrimidin-2(1H)-one], in assay [1], the “Coupled exchange IC50 (5 min)” value was 0.292 | nda μM. In assay [2], the IC50 was 271 nM.

For `C=CC(=O)N1CCN(c2nc(=O)n(-c3c(C)ncnc3C(C)C)c3nc(-c4cc(C)ccc4F)c(Cl)cc23)[C@@H](C)C1` [Example 55-40, 6-chloro-7-(2-fluoro-5-methylphenyl)-1-(4-methyl-6-(2-propanyl)-5-pyrimidinyl)-4-((2S)-2-methyl-4-(2-propenoyl)-1-piperazinyl)pyrido[2,3-d]pyrimidin-2(1H)-one], in assay [1], the “Coupled exchange IC50 (5 min)” value is 0.1 | nda μM. In addition, the IC50 in assay [2] was 149 nM.

In the case of `C=CC(=O)N1CCN(c2nc(=O)n(-c3ncnn3C(C)C)c3nc(-c4ccccc4F)c(Cl)cc23)[C@@H](C)C1` [Example 55-41, 6-chloro-7-(2-fluorophenyl)-4-((2S)-2-methyl-4-(2-propenoyl)-1-piperazinyl)-1-(1-(2-propanyl)-1H-1,2,4-triazol-5-yl)pyrido[2,3-d]pyrimidin-2(1H)-one], the “Coupled exchange IC50 (5 min)” value in assay [1] is on record as 0.292 | nda μM. Moreover, the IC50 in assay [2] is 908 nM.

`C=CC(=O)N1CCN(c2nc(=O)n(-c3c(CO)cccc3C(C)C)c3nc(-c4ccccc4F)c(Cl)cc23)[C@@H](C)C1` [Example 55-43, 6-chloro-7-(2-fluorophenyl)-1-(2-(hydroxymethyl)-6-(2-propanyl)phenyl)-4-((2S)-2-methyl-4-(2-propenoyl)-1-piperazinyl)pyrido[2,3-d]pyrimidin-2(1H)-one]: the “Coupled exchange IC50 (5 min)” value in assay [1] is 0.073 | nda μM. The IC50 in assay [2] was 70 nM.

Turning to `C=CC(=O)N1CCN(c2nc(=O)n(-c3ccccc3S(F)(F)(F)(F)F)c3nc(-c4c(O)cccc4F)c(Cl)cc23)[C@@H](C)C1` [Example 56-1, 6-Chloro-7-(2-fluoro-6-hydroxy-phenyl)-4-[(2S)-2-methyl-4-prop-2-enoyl-piperazin-1-yl]-1-[2-(pentafluoro-λ^6-sulfanyl)phenyl]pyrido[2,3-d]pyrimidin-2-one], in assay [1], the “Coupled exchange IC50 (5 min)” value is given as 0.149 | nda μM. In addition, the IC50 in assay [2] came out at 359 nM.

`C=CC(=O)N1CCN(c2nc(=O)n(-c3c(C(C)C)ncnc3C(C)C)c3nc(-c4c(N)cccc4F)c(Cl)cc23)[C@@H](C)C1` [Example 56-2, 7-(2-amino-6-fluorophenyl)-6-chloro-1-(4,6-di(2-propanyl)-5-pyrimidinyl)-4-((2S)-2-methyl-4-(2-propenoyl)-1-piperazinyl)pyrido[2,3-d]pyrimidin-2(1H)-one]: the “Coupled exchange IC50 (5 min)” value in assay [1] is given as 0.061 | nda μM. For the same compound, in assay [2], the IC50 turned out to be 52 nM.

In the case of `C=CC(=O)N1CCN(c2nc(=O)n(-c3c(C)cccc3C3CC3)c3nc(-c4ccccc4F)c(Cl)cc23)[C@@H](C)C1` [Example 56-5, 6-chloro-1-(2-cyclopropyl-6-methylphenyl)-7-(2-fluorophenyl)-4-((2S)-2-methyl-4-(2-propenoyl)-1-piperazinyl)pyrido[2,3-d]pyrimidin-2(1H)-one], the “Coupled exchange IC50 (5 min)” value in assay [1] was 0.433 | nda μM. Also, the IC50 in assay [2] was 740 nM.

As to `C=CC(=O)N1CCN(c2nc(=O)n(-c3ccccc3C(C)C)c3nc(-c4cc(N)ccc4Br)c(Cl)cc23)[C@@H](C)C1` [Example 56-6, 7-(5-amino-2-bromophenyl)-6-chloro-4-((2S)-2-methyl-4-(2-propenoyl)-1-piperazinyl)-1-(2-(2-propanyl)phenyl)pyrido[2,3-d]pyrimidin-2(1H)-one], the “Coupled exchange IC50 (5 min)” value in assay [1] is listed as 0.125 | nda μM. Moreover, the IC50 in assay [2] was 84 nM.

Take `C=CC(=O)N1CCN(c2nc(=O)n(-c3ccccc3C(C)C)c3nc(-c4cc(N)ccc4Cl)c(Cl)cc23)[C@@H](C)C1` [Example 56-7, 7-(5-amino-2-chlorophenyl)-6-chloro-4-((2S)-2-methyl-4-(2-propenoyl)-1-piperazinyl)-1-(2-(2-propanyl)phenyl)pyrido[2,3-d]pyrimidin-2(1H)-one]: the “Coupled exchange IC50 (5 min)” value in assay [1] is recorded as 0.11 | nda μM. Moreover, the IC50 in assay [2] was 69 nM.
